# Assays:
# [1] = biological target: Cyclin-dependent kinase 9 (Homo sapiens, UniProt P50750); test: Inhibition of CDK9 (unknown origin) preincubated for 20 mins followed by [gamma-33P]ATP addition measured after 120 mins in presence of ATP by Hot-SpotSM kinase assay
# Histone deacetylase = test: Inhibition of HDAC in human nuclear extract using Ac-Arg-Gly-Lys(Ac)-AMC as substrate incubated overnight by fluorescence based assay; type: subcellular, Nucleus; details: hela
# U-937 = test: Antiproliferative activity against human U-937 cells incubated for 72 hrs by CCK8 assay; type: functional, cell-based; details: U-937, 72 h
# HL-60 = test: Antiproliferative activity against human HL-60 cells incubated for 72 hrs by CCK8 assay; type: functional, cell-based; details: HL-60, 72 h
# [2] = Antiproliferative activity against human SKNO-1 cells incubated for 72 hrs by CCK8 assay; type: functional, cell-based; details: SKNO-1, 72 h
# Kasumi 1 [3] = test: Antiproliferative activity against human Kasumi 1 cells incubated for 72 hrs by CCK8 assay; type: functional, cell-based; details: Kasumi 1, 72 h
# Kasumi 1 [4] = test: Synergistic antiproliferative activity against human Kasumi 1 cells assessed as combination index incubated for 72 hrs in presence of Chidamide by CCK-8 assay; type: functional
# [5] = biological target: CDK1/Cyclin A (Homo sapiens) (UniProt P06493+P20248); test: Inhibition of CDK1/cyclinA2 (unknown origin) at 100 nM preincubated for 20 mins followed by [gamma-33P]ATP addition measured after 120 mins in presence of ATP by Hot-SpotSM kinase assay relative to control; type: protein-complex assay; details: time 140.0 min
# Sequence of CDK1/Cyclin A (Homo sapiens) (P06493 whole entry, looked up): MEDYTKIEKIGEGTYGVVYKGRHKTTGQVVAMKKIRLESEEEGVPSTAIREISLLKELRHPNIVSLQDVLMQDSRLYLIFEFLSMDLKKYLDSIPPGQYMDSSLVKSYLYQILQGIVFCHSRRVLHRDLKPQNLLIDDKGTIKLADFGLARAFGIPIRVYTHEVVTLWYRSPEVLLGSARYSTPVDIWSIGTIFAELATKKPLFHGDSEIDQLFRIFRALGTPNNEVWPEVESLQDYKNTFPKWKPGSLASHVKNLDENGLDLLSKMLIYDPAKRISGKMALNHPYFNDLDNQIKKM
# Sequence of CDK1/Cyclin A (Homo sapiens) (P20248 whole entry, looked up): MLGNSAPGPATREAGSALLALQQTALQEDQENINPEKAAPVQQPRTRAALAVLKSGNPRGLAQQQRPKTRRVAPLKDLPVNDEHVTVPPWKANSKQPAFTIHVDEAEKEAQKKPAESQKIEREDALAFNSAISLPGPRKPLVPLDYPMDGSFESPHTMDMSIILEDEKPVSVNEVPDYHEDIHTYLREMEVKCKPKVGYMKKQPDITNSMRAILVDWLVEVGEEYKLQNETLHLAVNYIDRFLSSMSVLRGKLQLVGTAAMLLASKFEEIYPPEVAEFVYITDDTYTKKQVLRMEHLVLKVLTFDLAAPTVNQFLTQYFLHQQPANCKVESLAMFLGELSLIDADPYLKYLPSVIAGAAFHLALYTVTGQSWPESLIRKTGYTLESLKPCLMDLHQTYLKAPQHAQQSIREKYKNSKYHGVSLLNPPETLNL
# [6] = biological target: Cyclin-dependent kinase 1/cyclin B1 (Homo sapiens) (UniProt P06493+P14635); test: Inhibition of CDK1/cyclinB1 (unknown origin) at 100 nM preincubated for 20 mins followed by [gamma-33P]ATP addition measured after 120 mins in presence of ATP by Hot-SpotSM kinase assay relative to control; type: protein-complex assay; details: time 140.0 min
# [7] = biological target: CDK1/Cyclin E (Homo sapiens) (UniProt P06493+P24864); test: Inhibition of CDK1/cyclinE1 (unknown origin) at 100 nM preincubated for 20 mins followed by [gamma-33P]ATP addition measured after 120 mins in presence of ATP by Hot-SpotSM kinase assay relative to control; type: protein-complex assay; details: time 140.0 min
# Sequence of CDK1/Cyclin E (Homo sapiens) (P06493 whole entry, looked up): as the sequence (P06493 whole entry, looked up) above
# Sequence of CDK1/Cyclin E (Homo sapiens) (P24864 whole entry, looked up): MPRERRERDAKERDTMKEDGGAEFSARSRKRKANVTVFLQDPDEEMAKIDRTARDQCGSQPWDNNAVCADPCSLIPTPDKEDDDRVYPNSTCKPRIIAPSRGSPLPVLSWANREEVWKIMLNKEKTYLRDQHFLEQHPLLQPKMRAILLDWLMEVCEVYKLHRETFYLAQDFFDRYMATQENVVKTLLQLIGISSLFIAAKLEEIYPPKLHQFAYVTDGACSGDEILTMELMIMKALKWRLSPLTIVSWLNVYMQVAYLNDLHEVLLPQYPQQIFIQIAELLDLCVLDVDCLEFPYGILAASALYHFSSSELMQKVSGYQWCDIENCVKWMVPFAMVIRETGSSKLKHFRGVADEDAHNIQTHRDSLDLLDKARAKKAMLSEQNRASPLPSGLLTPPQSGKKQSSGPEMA
# [8] = biological target: CDK3/Cyclin E (Homo sapiens) (UniProt P24864+Q00526); test: Inhibition of CDK3/cyclinE1 (unknown origin) at 100 nM preincubated for 20 mins followed by [gamma-33P]ATP addition measured after 120 mins in presence of ATP by Hot-SpotSM kinase assay relative to control; type: protein-complex assay; details: time 140.0 min
# Sequence of CDK3/Cyclin E (Homo sapiens) (P24864 whole entry, looked up): as above
# Sequence of CDK3/Cyclin E (Homo sapiens) (Q00526 whole entry, looked up): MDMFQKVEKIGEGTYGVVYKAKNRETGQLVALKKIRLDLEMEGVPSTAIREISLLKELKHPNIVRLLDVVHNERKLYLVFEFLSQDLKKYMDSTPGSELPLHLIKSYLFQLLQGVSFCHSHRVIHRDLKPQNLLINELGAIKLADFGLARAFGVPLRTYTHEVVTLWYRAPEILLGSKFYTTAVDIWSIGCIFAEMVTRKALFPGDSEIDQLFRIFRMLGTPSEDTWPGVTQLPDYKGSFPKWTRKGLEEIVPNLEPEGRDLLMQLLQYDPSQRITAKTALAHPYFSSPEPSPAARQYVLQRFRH
# [9] = biological target: Cyclin-dependent kinase 4/cyclin D1 (Homo sapiens) (UniProt P11802+P24385); test: Inhibition of CDK4/cyclinD1 (unknown origin) at 100 nM preincubated for 20 mins followed by [gamma-33P]ATP addition measured after 120 mins in presence of ATP by Hot-SpotSM kinase assay relative to control; type: protein-complex assay; details: time 140.0 min
# [10] = biological target: CDK4/Cyclin D3 (Homo sapiens) (UniProt P11802+P30281); test: Inhibition of CDK4/cyclinD3 (unknown origin) at 100 nM preincubated for 20 mins followed by [gamma-33P]ATP addition measured after 120 mins in presence of ATP by Hot-SpotSM kinase assay relative to control; type: protein-complex assay; details: time 140.0 min
# [11] = biological target: T1, Cyclin-dependent kinase 5/CDK5 activator 1 (Homo sapiens) (UniProt Q00535+Q15078); test: Inhibition of CDK5/p25NCK (unknown origin) at 100 nM preincubated for 20 mins followed by [gamma-33P]ATP addition measured after 120 mins in presence of ATP by Hot-SpotSM kinase assay relative to control; type: protein-complex assay; details: time 140.0 min
# T1 sequence (Q00535 whole entry): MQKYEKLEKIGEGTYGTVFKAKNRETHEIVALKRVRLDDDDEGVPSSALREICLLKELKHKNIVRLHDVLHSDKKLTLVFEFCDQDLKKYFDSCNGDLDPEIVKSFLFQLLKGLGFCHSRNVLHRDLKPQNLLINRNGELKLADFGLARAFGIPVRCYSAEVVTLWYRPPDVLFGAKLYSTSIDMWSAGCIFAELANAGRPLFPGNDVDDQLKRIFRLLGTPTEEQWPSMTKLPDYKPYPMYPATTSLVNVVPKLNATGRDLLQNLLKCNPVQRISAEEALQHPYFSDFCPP
# T1 sequence (Q15078 99-307 partner limits assumed): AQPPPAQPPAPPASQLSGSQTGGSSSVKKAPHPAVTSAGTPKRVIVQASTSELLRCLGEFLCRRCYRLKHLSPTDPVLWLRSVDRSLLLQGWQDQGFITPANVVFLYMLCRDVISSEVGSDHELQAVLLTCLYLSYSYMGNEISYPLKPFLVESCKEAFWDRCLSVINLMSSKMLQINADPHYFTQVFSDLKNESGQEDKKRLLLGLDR
# [12] = biological target: T1, Cyclin-dependent kinase 5/CDK5 activator 1 (Homo sapiens); test: Inhibition of CDK5/p35NCK (unknown origin) at 100 nM preincubated for 20 mins followed by [gamma-33P]ATP addition measured after 120 mins in presence of ATP by Hot-SpotSM kinase assay relative to control; type: protein-complex assay; details: time 140.0 min
# [13] = biological target: CDK6/cyclin D1 (Homo sapiens) (UniProt P24385+Q00534); test: Inhibition of CDK6/cyclinD1 (unknown origin) at 100 nM preincubated for 20 mins followed by [gamma-33P]ATP addition measured after 120 mins in presence of ATP by Hot-SpotSM kinase assay relative to control; type: protein-complex assay; details: time 140.0 min
# [14] = biological target: CDK6/cyclin D3 (Homo sapiens) (UniProt P30281+Q00534); test: Inhibition of CDK6/cyclinD3 (unknown origin) at 100 nM preincubated for 20 mins followed by [gamma-33P]ATP addition measured after 120 mins in presence of ATP by Hot-SpotSM kinase assay relative to control; type: protein-complex assay; details: time 140.0 min
# [15] = biological target: CDK12/Cyclin K (Homo sapiens) (UniProt O75909+Q9NYV4); test: Inhibition of CDK12/cyclinK (unknown origin) at 100 nM preincubated for 20 mins followed by [gamma-33P]ATP addition measured after 120 mins in presence of ATP by Hot-SpotSM kinase assay relative to control; type: protein-complex assay; details: time 140.0 min
# [16] = biological target: Cyclin-dependent kinase 13/Cyclin-K (Homo sapiens) (UniProt Q14004+O75909); test: Inhibition of CDK13/cyclinK (unknown origin) at 100 nM preincubated for 20 mins followed by [gamma-33P]ATP addition measured after 120 mins in presence of ATP by Hot-SpotSM kinase assay relative to control; type: protein-complex assay; details: time 140.0 min
# Sequence of Cyclin-dependent kinase 13/Cyclin-K (Homo sapiens) (O75909 whole entry, looked up): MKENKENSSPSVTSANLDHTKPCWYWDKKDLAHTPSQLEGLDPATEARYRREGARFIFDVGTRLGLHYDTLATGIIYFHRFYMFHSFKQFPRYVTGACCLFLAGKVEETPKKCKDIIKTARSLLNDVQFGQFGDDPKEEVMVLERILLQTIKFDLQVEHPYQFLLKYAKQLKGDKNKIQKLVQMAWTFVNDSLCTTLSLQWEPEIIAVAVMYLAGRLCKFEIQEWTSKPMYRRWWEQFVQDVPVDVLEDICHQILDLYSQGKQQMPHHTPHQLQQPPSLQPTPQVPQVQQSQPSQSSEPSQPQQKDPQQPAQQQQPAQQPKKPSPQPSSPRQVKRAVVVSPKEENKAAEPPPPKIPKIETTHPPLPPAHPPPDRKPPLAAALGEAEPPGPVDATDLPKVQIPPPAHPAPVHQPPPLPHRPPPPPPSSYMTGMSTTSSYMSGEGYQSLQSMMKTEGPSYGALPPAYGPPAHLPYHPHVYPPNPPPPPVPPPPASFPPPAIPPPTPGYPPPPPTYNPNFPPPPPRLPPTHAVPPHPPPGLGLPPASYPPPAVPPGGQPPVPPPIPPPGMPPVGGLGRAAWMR
# Sequence of Cyclin-dependent kinase 13/Cyclin-K (Homo sapiens) (Q14004 whole entry, looked up): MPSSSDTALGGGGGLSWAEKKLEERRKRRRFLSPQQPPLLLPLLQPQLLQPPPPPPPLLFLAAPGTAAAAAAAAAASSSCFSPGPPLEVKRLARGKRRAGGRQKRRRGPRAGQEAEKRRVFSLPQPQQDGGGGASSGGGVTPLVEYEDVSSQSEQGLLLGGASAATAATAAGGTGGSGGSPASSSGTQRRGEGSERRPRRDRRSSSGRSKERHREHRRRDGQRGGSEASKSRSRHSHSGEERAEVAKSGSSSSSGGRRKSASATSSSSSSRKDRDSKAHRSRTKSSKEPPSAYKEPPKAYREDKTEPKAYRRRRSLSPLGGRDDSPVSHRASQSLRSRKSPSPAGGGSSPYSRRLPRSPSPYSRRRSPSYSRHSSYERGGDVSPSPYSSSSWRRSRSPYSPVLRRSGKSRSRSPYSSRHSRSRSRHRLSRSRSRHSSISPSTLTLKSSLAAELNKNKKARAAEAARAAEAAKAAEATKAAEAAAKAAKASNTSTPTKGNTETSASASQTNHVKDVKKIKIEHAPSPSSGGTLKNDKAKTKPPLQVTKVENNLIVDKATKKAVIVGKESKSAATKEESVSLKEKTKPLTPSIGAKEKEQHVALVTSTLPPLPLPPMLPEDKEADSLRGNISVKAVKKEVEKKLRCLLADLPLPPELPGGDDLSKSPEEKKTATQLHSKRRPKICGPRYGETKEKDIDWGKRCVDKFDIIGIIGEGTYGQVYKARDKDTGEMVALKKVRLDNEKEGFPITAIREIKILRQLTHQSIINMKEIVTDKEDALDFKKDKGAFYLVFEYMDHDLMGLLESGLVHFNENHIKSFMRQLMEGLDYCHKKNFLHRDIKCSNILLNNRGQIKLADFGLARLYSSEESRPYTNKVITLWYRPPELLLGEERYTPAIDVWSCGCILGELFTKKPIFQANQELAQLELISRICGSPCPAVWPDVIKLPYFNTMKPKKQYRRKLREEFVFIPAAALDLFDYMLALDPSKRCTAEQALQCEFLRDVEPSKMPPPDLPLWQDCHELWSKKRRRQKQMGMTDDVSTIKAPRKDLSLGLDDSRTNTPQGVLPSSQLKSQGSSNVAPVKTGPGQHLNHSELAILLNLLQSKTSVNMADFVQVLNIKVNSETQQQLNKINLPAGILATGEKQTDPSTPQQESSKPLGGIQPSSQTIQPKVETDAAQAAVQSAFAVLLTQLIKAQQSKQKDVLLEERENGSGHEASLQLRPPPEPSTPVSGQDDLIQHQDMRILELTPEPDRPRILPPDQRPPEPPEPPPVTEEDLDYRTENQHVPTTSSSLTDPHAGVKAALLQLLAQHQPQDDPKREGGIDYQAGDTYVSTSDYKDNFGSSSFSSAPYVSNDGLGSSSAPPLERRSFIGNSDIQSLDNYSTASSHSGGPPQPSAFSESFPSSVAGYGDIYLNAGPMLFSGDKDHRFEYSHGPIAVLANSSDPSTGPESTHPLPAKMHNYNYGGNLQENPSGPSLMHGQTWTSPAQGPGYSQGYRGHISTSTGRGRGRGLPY
# [17] = biological target: Cyclin-C/Cyclin-dependent kinase 19 (Homo sapiens) (UniProt Q9BWU1+P24863); test: Inhibition of CDK19/cyclinC (unknown origin) at 100 nM preincubated for 20 mins followed by [gamma-33P]ATP addition measured after 120 mins in presence of ATP by Hot-SpotSM kinase assay relative to control; type: protein-complex assay; details: time 140.0 min
# Sequence of Cyclin-dependent kinase 9 (P50750 whole entry): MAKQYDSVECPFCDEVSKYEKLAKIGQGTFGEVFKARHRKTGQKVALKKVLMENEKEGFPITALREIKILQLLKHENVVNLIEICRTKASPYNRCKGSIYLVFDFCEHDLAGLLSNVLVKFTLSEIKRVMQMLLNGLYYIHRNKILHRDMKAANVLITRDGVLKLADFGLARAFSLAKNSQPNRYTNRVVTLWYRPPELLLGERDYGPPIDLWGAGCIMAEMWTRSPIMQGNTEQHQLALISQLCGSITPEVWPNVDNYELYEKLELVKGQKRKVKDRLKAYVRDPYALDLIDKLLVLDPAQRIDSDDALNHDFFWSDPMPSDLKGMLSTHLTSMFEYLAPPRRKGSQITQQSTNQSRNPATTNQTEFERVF
Compound,IC50 [1] [nM],IC50 (U-937) [nM],IC50 (HL-60) [nM],IC50 [2] [nM],IC50 (Kasumi 1 [3]) [nM],also measured
O=C(CCCNC(=O)c1ccc(NC(=O)c2n[nH]cc2NC(=O)c2c(F)cccc2F)cc1)NO,< 100,> 10000,> 10000,> 10000,5600,
O=C(CCCNC(=O)c1ccc(NC(=O)c2n[nH]cc2NC(=O)c2c(Cl)cccc2Cl)cc1)NO,< 100,> 10000,> 10000,> 10000,> 10000,
O=C(CCCCCNC(=O)c1ccc(NC(=O)c2n[nH]cc2NC(=O)c2c(F)cccc2F)cc1)NO,< 100,> 10000,> 10000,> 10000,> 10000,
O=C(CCNC(=O)c1ccc(NC(=O)c2n[nH]cc2NC(=O)c2c(Cl)cccc2Cl)cc1)NO,< 100,> 10000,> 10000,> 10000,> 10000,
Nc1cc(Cl)c(Cl)cc1NC(=O)c1ccc(NC(=O)c2n[nH]cc2NC(=O)c2c(F)cccc2F)cc1,< 100,6800,> 10000,7280,7790,
O=C(CCCCCNC(=O)c1n[nH]cc1NC(=O)c1c(Cl)cccc1Cl)NO,< 100,> 10000,> 10000,> 10000,> 10000,
O=C(CCNC(=O)c1ccc(NC(=O)c2n[nH]cc2NC(=O)c2c(F)cccc2F)cc1)NO,< 100,> 10000,> 10000,5970,8810,
O=C(CCCN1CCC(NC(=O)c2n[nH]cc2NC(=O)c2c(F)cccc2F)CC1)NO,< 100,> 10000,2550,6310,> 10000,

# Stronger by IC50 (U-937), values ahead:
IC50 [1] [nM],IC50 (U-937) [nM],IC50 (HL-60) [nM],Compound,IC50 [2] [nM],IC50 (Kasumi 1 [3]) [nM],also measured
< 100,470,1090,O=C(CCCCCCN1CCC(NC(=O)c2n[nH]cc2NC(=O)c2c(Cl)cccc2Cl)CC1)NO,3090,6410,IC50 (Histone deacetylase): < 1000 nM
,1150,2330,O=C(NC1CCNCC1)c1n[nH]cc1NC(=O)c1c(Cl)cccc1Cl [AT-7519],1220,1480,CI (Kasumi 1 [4]): <1; inhibition [5]: 24%; inhibition [6]: 39.3%; inhibition [7]: 31.4%; inhibition [8]: 26.5%; inhibition [9]: 68.7%; inhibition [10]: 74.6%; inhibition [11]: 76.9%; inhibition [12]: 62.5%; inhibition [13]: 56.8%; inhibition [14]: 33.2%; inhibition [15]: 85%; inhibition [16]: 87%; inhibition [17]: 6.49%
< 100,4680,5840,O=C(Nc1ccccc1)c1ccc(NC(=O)c2n[nH]cc2NC(=O)c2c(Cl)cccc2Cl)cc1,3270,3830,
< 100,1830,1100,O=C(CCCCN1CCC(NC(=O)c2n[nH]cc2NC(=O)c2c(Cl)cccc2Cl)CC1)NO,2320,3720,
< 100,1140,1020,Cc1cc(N)c(NC(=O)c2ccc(NC(=O)c3n[nH]cc3NC(=O)c3c(Cl)cccc3Cl)cc2)cc1C,2560,930,
< 100,940,1160,O=C(CN1CCC(NC(=O)c2n[nH]cc2NC(=O)c2c(Cl)cccc2Cl)CC1)NO,1540,1540,
< 100,1440,1010,O=C(CCCCCCN1CCC(NC(=O)c2n[nH]cc2NC(=O)c2c(F)cccc2F)CC1)NO,1080,1960,
